From PMC8424369 (Journal of Pharmaceutical Analysis, 2020)

Tests used:
Caco-2 cell monolayer = assay: Bidirectional transport experiments on Caco-2 cell monolayer model; assay type: in vitro ADME, human; conditions: for Papp(AP-BL): AP to BL; for Papp(AP-BL) / Recovery (%) BL-AP / Papp(BL-AP) / ER (efflux ratio, Papp(BL-AP)/Papp(AP-BL)): donor 10 μM, 3 h; for Papp(AP-BL) / Recovery (%) BL-AP / Papp(BL-AP): 37 °C; for Papp(AP-BL) / Papp(BL-AP): single time point, mean ± S.D. (n=3); for Recovery (%) BL-AP / Papp(BL-AP): BL to AP; for Intestinal absorption / transport mechanism speculated from ER: comparison of Papp in two directions
[1] = Stability of QC samples in transport medium; assay type: physicochemical; conditions: HBSS, n=3
[2] = Bidirectional transport experiments on Caco-2 cell monolayer model; assay type: in vitro ADME, human; conditions: human, donor 10 μM, 3 h
[3] = high QC conc. (SSs 100, SGF 1000, SGD 800, SGG 2200 nM)
[4] = low QC conc. (SSs 1, SGF 10, SGD 8, SGG 22 nM)
[5] = middle QC conc. (SSs 10, SGF 100, SGD 80, SGG 220 nM)

C[C@H]1O[C@@H](O[C@H]2CC[C@@]3(C)[C@@H](CC[C@]4(C)[C@@H]3C=CC3=C5CC(C)(C)CC[C@]5(CO)[C@H](O)C[C@]34C)[C@]2(C)CO)[C@H](O)[C@@H](O[C@@H]2O[C@H](CO)[C@@H](O)[C@H](O)[C@H]2O)[C@H]1O [SSb2]
Papp(AP-BL) (Caco-2 cell monolayer): 0.051 ± 0.010 × 10^−6 cm/s | Recovery (%) BL-AP (Caco-2 cell monolayer): 68.12% | Papp(BL-AP) (Caco-2 cell monolayer): 0.055 ± 0.011 × 10^−6 cm/s | Intestinal absorption / transport mechanism speculated from ER (Caco-2 cell monolayer): passive transport | ER (efflux ratio, Papp(BL-AP)/Papp(AP-BL)) (Caco-2 cell monolayer): 1.09 | Stability, Autosampler (4 °C for 8 h), RE (%) [1, 3]: 5.11% | Stability, Bench-top (room temperature for 6 h), RE (%) [1, 3]: −0.27% | Stability, Freeze-thaw (three cycles at −80 °C), RE (%) [1, 3]: 8.34% | Stability, Processed samples (−80 °C for 8 h), RE (%) [1, 3]: 4.04% | Stability, Autosampler (4 °C for 8 h), RE (%) [1, 4]: 0.92% | Stability, Bench-top (room temperature for 6 h), RE (%) [1, 4]: 0.01% | Stability, Freeze-thaw (three cycles at −80 °C), RE (%) [1, 4]: 2.62% | Stability, Processed samples (−80 °C for 8 h), RE (%) [1, 4]: 3.52% | Stability, Autosampler (4 °C for 8 h), RE (%) [1, 5]: 0.35% | Stability, Bench-top (room temperature for 6 h), RE (%) [1, 5]: 5.34% | Stability, Freeze-thaw (three cycles at −80 °C), RE (%) [1, 5]: 3.06% | Stability, Processed samples (−80 °C for 8 h), RE (%) [1, 5]: 6.93%

C[C@H]1O[C@@H](O[C@H]2CC[C@@]3(C)[C@@H](CC[C@]4(C)[C@@H]3C=C[C@]35OC[C@@]6(CCC(C)(C)C[C@H]63)[C@@H](O)C[C@]54C)[C@]2(C)CO)[C@H](O)[C@@H](O[C@@H]2O[C@H](CO)[C@@H](O)[C@H](O)[C@H]2O)[C@H]1O [SSa]
efflux ratio at 3 h, 10 μM ([2]; Caco-2, ER (efflux ratio, Papp(BL-AP)/Papp(AP-BL))): 1.15 | Papp A→B at 3 h, 10 μM ([2]; Caco-2, Papp(AP-BL), AP to BL, 37 °C, single time point, mean ± S.D. (n=3)): 0.088 ± 0.014 ×10⁻⁶ cm/s | Papp B→A at 3 h, 10 μM ([2]; Caco-2, Papp(BL-AP), BL to AP, 37 °C, single time point, mean ± S.D. (n=3)): 0.102 ± 0.031 ×10⁻⁶ cm/s | recovery at 3 h, 10 μM ([2]; Caco-2, Recovery (%) BL-AP, BL to AP, 37 °C): 77.6% | Intestinal absorption / transport mechanism speculated from ER (Caco-2 cell monolayer): passive transport | Stability, Autosampler (4 °C for 8 h), RE (%) [1, 3]: −1.88% | Stability, Bench-top (room temperature for 6 h), RE (%) [1, 3]: 0.62% | Stability, Freeze-thaw (three cycles at −80 °C), RE (%) [1, 3]: 1.36% | Stability, Processed samples (−80 °C for 8 h), RE (%) [1, 3]: −1.50% | Stability, Autosampler (4 °C for 8 h), RE (%) [1, 4]: −3.60% | Stability, Bench-top (room temperature for 6 h), RE (%) [1, 4]: −1.06% | Stability, Freeze-thaw (three cycles at −80 °C), RE (%) [1, 4]: −7.46% | Stability, Processed samples (−80 °C for 8 h), RE (%) [1, 4]: −10.40% | Stability, Autosampler (4 °C for 8 h), RE (%) [1, 5]: 0.91% | Stability, Bench-top (room temperature for 6 h), RE (%) [1, 5]: 2.00% | Stability, Freeze-thaw (three cycles at −80 °C), RE (%) [1, 5]: 8.65% | Stability, Processed samples (−80 °C for 8 h), RE (%) [1, 5]: 2.87%

C[C@H]1O[C@@H](O[C@H]2CC[C@@]3(C)[C@@H](CC[C@]4(C)[C@@H]3C=C[C@]35OC[C@@]6(CCC(C)(C)C[C@H]63)[C@H](O)C[C@]54C)[C@]2(C)CO)[C@H](O)[C@@H](O[C@@H]2O[C@H](CO)[C@@H](O)[C@H](O)[C@H]2O)[C@H]1O [SSd]
Papp(AP-BL) (Caco-2 cell monolayer): 0.312 ± 0.020 × 10^−6 cm/s | Recovery (%) BL-AP (Caco-2 cell monolayer): 68.96% | Papp(BL-AP) (Caco-2 cell monolayer): 0.079 ± 0.012 × 10^−6 cm/s | Intestinal absorption / transport mechanism speculated from ER (Caco-2 cell monolayer): certain uptake transporters were probably involved | ER (efflux ratio, Papp(BL-AP)/Papp(AP-BL)) (Caco-2 cell monolayer): 0.25 | Stability, Autosampler (4 °C for 8 h), RE (%) [1, 3]: −0.92% | Stability, Bench-top (room temperature for 6 h), RE (%) [1, 3]: −8.09% | Stability, Freeze-thaw (three cycles at −80 °C), RE (%) [1, 3]: 12.04% | Stability, Processed samples (−80 °C for 8 h), RE (%) [1, 3]: −5.31% | Stability, Autosampler (4 °C for 8 h), RE (%) [1, 4]: −5.69% | Stability, Bench-top (room temperature for 6 h), RE (%) [1, 4]: 0.83% | Stability, Freeze-thaw (three cycles at −80 °C), RE (%) [1, 4]: −1.11% | Stability, Processed samples (−80 °C for 8 h), RE (%) [1, 4]: 1.51% | Stability, Autosampler (4 °C for 8 h), RE (%) [1, 5]: −0.46% | Stability, Bench-top (room temperature for 6 h), RE (%) [1, 5]: 8.37% | Stability, Freeze-thaw (three cycles at −80 °C), RE (%) [1, 5]: 5.76% | Stability, Processed samples (−80 °C for 8 h), RE (%) [1, 5]: −0.37%
